Reference: the supplement of paper PMC10307832

Legend:
Assay in all cases: relative viability (nuclei count vs DMSO), 5 days (fraction); higher = more cells survive
[1] = compound: O=c1[nH]c2ccccc2n1C1CCN(CCCC(c2ccc(F)cc2)c2ccc(F)cc2)CC1 [Pimozide]
In short: (§1)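 Lung cancer cell lines were seeded into 1536-well plates, kept overnight at 37 °C and pinned with five library-drug doses (not always all listed) spaced by √10. After 5 days, nuclei were Hoechst-stained, imaged at 4× and counted with MetaXpress. Viability is treated-well nuclei over vehicle-well nuclei, taken as a median across plates. Plates needed control CV below 25% and at least one doubling.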

[2] = compound: CC(=O)O[C@@]12CO[C@@H]1C[C@H](O)[C@@]1(C)C(=O)[C@H](O)C3=C(C)[C@@H](OC(=O)[C@H](O)[C@@H](NC(=O)OC(C)(C)C)c4ccccc4)C[C@@](O)([C@@H](OC(=O)c4ccccc4)[C@H]21)C3(C)C [Docetaxel]
In short: as §1

[3] = compound: O=C(O)CCCCC(CCSCc1ccccc1)SCc1ccccc1 [CPI-613]
In short: as §1

[4] = compound: Cc1sc2c(c1C)C(c1ccc(Cl)cc1)=N[C@@H](CC(=O)OC(C)(C)C)c1nnc(C)n1-2 [JQ1]
In short: as §1

[5] = compound: Nc1ccn([C@@H]2O[C@H](CO)[C@@H](O)[C@@H]2O)c(=O)n1 [Cytarabine]
In short: as §1

[6] = compound: Cc1cnc(-c2cnc(NCCNc3ccc(C#N)cn3)nc2-c2ccc(Cl)cc2Cl)[nH]1
In short: as §1

[7] = compound: COc1cc2nccc(Oc3ccc(NC(=O)Nc4cc(C)on4)c(Cl)c3)c2cc1OC [Tivozanib]
In short: as §1

Cell Line	relative viability ([1]; 0.08 µM)	relative viability ([1]; 0.253 µM)	relative viability ([1]; 0.8 µM)	relative viability ([1]; 2.53 µM)	relative viability ([1]; 8 µM)	relative viability ([2]; 0.0002 µM)	relative viability ([2]; 0.000632 µM)	relative viability ([2]; 0.002 µM)	relative viability ([2]; 0.006325 µM)	relative viability ([2]; 0.02 µM)	relative viability ([3]; 5 µM)	relative viability ([3]; 15.81 µM)	relative viability ([3]; 50 µM)	relative viability ([3]; 158.11 µM)	relative viability ([3]; 500 µM)	relative viability ([4]; 0.04 µM)	relative viability ([4]; 0.1265 µM)	relative viability ([4]; 0.4 µM)	relative viability ([4]; 1.265 µM)	relative viability ([4]; 4 µM)	relative viability ([5]; 0.005 µM)	relative viability ([5]; 0.01581 µM)	relative viability ([5]; 0.05 µM)	relative viability ([5]; 0.1581 µM)	relative viability ([5]; 0.5 µM)	relative viability ([6]; 0.08 µM)	relative viability ([6]; 0.253 µM)	relative viability ([6]; 0.8 µM)	relative viability ([6]; 2.53 µM)	relative viability ([7]; 0.005 µM)	relative viability ([7]; 0.01581 µM)	relative viability ([7]; 0.05 µM)	relative viability ([7]; 0.1581 µM)	relative viability ([7]; 0.5 µM)
LCLC-103H	0.975	0.905	0.911	0.969	0.963	0.973	1.09	0.903	0.502	0.458	0.999	0.95	0.99	0.854	0.773	0.979	0.83	0.906	0.658	0.427	0.912	0.991	1.01	0.965	0.894	1.03	0.865	0.989	0.952	0.996	0.995	1.06	0.982	0.994
NCI-H2009	0.997	0.985	1.01	0.909	0.926	0.955	1	0.944	0.456	0.239	0.995	0.939	0.923	0.24	0.0296	0.96	0.645	0.574	0.297	0.313	1.01	1.01	0.997	0.724	0.398	1.01	0.93	1.08	0.943	0.955	1	1.02	0.994	0.91
NCI-H1651	0.977	1	0.964	0.913	0.973	0.858	0.979	0.671	0.198	0.14	0.995	0.947	0.93	0.769	0.527	0.908	0.838	0.708	0.606	0.546	1.07	0.972	0.986	0.664	0.476	0.975	0.924	0.982	1.02	0.941	0.951	1.05	0.882	0.98
UMC-11	1.01	0.983	0.961	0.976	1.07	0.912	0.944	0.456	0.279	0.187	0.945	0.924	0.911	0.474	0.133	0.926	0.742	0.43	0.29	0.26	0.75	0.554	0.551	0.316	0.264	0.943	0.787	0.929	1.02	0.944	0.954	0.965	–	0.927
SK-MES-1	0.942	0.998	0.979	1.01	0.985	1	0.872	0.418	0.267	0.172	0.967	0.904	0.98	0.531	0.477	0.937	0.717	0.603	0.311	0.25	0.875	0.712	0.355	0.258	0.221	1.09	0.947	1.02	1.1	0.997	0.993	1.02	1	0.959
